# According to patent publication EP4674425A1, “COMPOSITION FOR TREATING DIABETIC RETINOPATHY, COMPRISING PEPTIDE” (EyebioKorea, Inc., priority 2023, dated 2026):
# Non-standard residues stand in square brackets, D forms with d. No end group written: not given here. Hyp = O=C(O)[C@@H]1C[C@@H](O)CN1; Aib = CC(C)(N)C(=O)O
# Experiments:
# [1] = system: oxygen induced retinopathy (OIR) mouse model; test: Inhibition of neovascularity in oxygen induced retinopathy mouse model (Isolectin B4 flat mount, fluorescence imaging); assay type: in vivo; details: eye drops (ED) for 5 days from day 12 to day 16 after birth; versus OIR model group; positive control aflibercept IVT once on day 12; Figures 1 and 2
# Protocol: In order to evaluate the efficacy of the peptide of the present invention in inhibiting neovascularity in an oxygen induced retinopathy (OIR) mouse model, an experiment was performed as follows.
# After stabilizing the mice born with the mother (new born mice) for about 3 to 4 days, they were raised under 75% hyperoxic conditions for 5 days from day 7 to day 11 after birth. Thereafter, they were raised under normoxic conditions until day 17 after birth. Drugs were administered while they were raised under normoxic conditions. The peptide of the present invention (002-175) was administered as eye drops (ED) for 5 days from day 12 to day 16 after birth, and as a positive control group, aflibercept was administered intraocularly (intravitreal injection, IVT) once on day 12 after birth. Thereafter, the mouse eyes were extracted, fixed in 10% formalin for 1 hour, and then flat mounted. The retina was divided into four equal parts centered on the optic nerve, and treated with Isolectin B4 (1 mM CaCl2, 1:200) overnight (O/N). Thereafter, they were spread on a slide glass, sprayed with mounting solution, covered with a cover glass, and photographed under a fluorescence microscope. The fluorescence images of blood vessels in the retina were obtained, and the number and area of new blood vessels and the area of blood vessels were calculated using the imageJ program.
# [2] = system: Streptozotocin (STZ) induced diabetic retinopathy mouse model; test: Electroretinography in streptozotocin induced diabetic retinopathy mouse model; assay type: in vivo, C57BL/6 mice; details: electroretinogram (ERG); eye drops (ED) twice a day for about 17 weeks; versus STZ model group; comparator aflibercept; Figure 3
# Protocol: The streptozotocin induced mouse model is a type 1 diabetes mellitus model that induces diabetes mellitus by injecting the antibiotic streptozotocin (STZ) into the mouse's peritoneum to damage the beta cells that produce insulin in the pancreas. It is one of the models used in diabetic retinopathy research, and it is a model that can confirm the early stage of diabetic retinopathy from the time of onset of diabetes mellitus.
# After fasting for 3-4 hours before administration, 8-week-old C57BL/6 mice were administered with streptozotocin (STZ) dissolved in Na-citrate buffer and buffer at a dose of 50 mg/kg intraperitoneally for 5 days. The drug used at this time was prepared immediately before administration and used quickly. One week after the last STZ intraperitoneal administration, blood glucose was measured, and only mice with blood glucose exceeding 250 mg/dL were determined to be diabetic mice and used in the experiment. The drug was administered as eye drops (ED) twice a day for about 17 weeks starting from the day after model production, and 10 µg was administered intraocularly (intravitreal injection, IVT) once a month. […] The retina was stimulated with a single white light to obtain a response value, and the amplitude from the trough of the a wave to the peak of the b wave was measured, which was evaluated as an index of retinal function.
# db/db mouse model = test: Electroretinography in db/db mouse model; assay type: in vivo, db/db mice; details: electroretinogram (ERG), Figure 4
# Protocol: The drug was administered as eye drops (ED) to 12-week-old db/db mice twice a day (BID) or three times a day (TID) for about 12 weeks. In order to evaluate retinal function, the mice were dark-adapted for more than 12 hours before measuring electroretinogram (ERG), and then the mice were subjected to pupillary dilation and anesthetized, and electrodes were placed on the skin, tail, and cornea to measure ERG. The retina was stimulated with a single white light to obtain a response value, and the amplitude from the trough of the a wave to the peak of the b wave was measured, which was evaluated as an index of retinal function.
# pericytes = test: Loss of pericytes in retinal blood vessels of db/db mice (elastase digest, PAS staining); assay type: in vivo; details: Figures 5 and 6
# Source text: In the early stage of nonproliferative diabetic retinopathy, blood flows into the tissue due to the loss of pericytes surrounding the capillaries, causing the macula to swell. Macular edema is a representative symptom of nonproliferative diabetic retinopathy in which the focus of objects becomes blurred, the field of vision darkens, and visual acuity temporarily decreases. Therefore, in order to evaluate the efficacy of the peptide of the present invention in inhibiting loss of pericytes, an experiment was performed as follows.
# The drug was administered as eye drops (ED) to 12-week-old db/db mice twice a day (BID) or three times a day (TID) for about 12 weeks. In order to evaluate the state of blood vessels in the retina, the eyes of the extracted mice were fixed in 10% formalin for a week. Thereafter, the fixed eye tissue was treated with elastase to separate the retinal blood vessels and PAS staining was performed. The ratio of vascular endothelial cells and pericytes present in the blood vessel walls and the number of acellular blood vessels were quantified to evaluate the permeability of the blood vessels in the retina.
# Akt [3] = test: Western blot of retinal tissue, STZ induced diabetic retinopathy mouse model; assay type: in vivo, C57BL/6 mice; details: about 17 weeks of administration, versus STZ model group, Figure 7
# Protocol: (§1) After fasting for 3-4 hours before administration, 8-week-old C57BL/6 mice were administered with streptozotocin (STZ) dissolved in Na-citrate buffer and buffer at a dose of 50 mg/kg intraperitoneally for 5 days. The drug used at this time was prepared immediately before administration and used quickly. One week after the last STZ intraperitoneal administration, blood glucose was measured, and only mice with blood glucose exceeding 250 mg/dL were determined to be diabetic mice and used in the experiment. The drug was administered as eye drops (ED) twice a day for about 17 weeks starting from the day after model production, and 10 µg was administered intraocularly (intravitreal injection, IVT) once a month. In order to evaluate the expression level of proteins in the retina, retinal tissue was separated from the extracted mouse eyes and treated with RIPA solution to extract proteins in the retina. Western blot was performed to evaluate the expression level of factors related to neovascularization and vascular permeability in the retina.
# [4] = system: vascular endothelial growth factor (VEGF); test: as above; assay type: in vivo, C57BL/6 mice; details: about 17 weeks of administration, versus STZ model group, Figure 7
# Protocol: as §1
# Akt [5] = test: Western blot of retinal tissue, db/db mouse model; assay type: in vivo, db/db mice; details: eye drops three times a day (TID) for about 12 weeks, versus db/db mouse group, Figure 9
# Protocol: (§2) The drug was administered as eye drops (ED) to 12-week-old db/db mice twice a day (BID) or three times a day (TID) for about 12 weeks. In order to evaluate the expression level of proteins in the retina, retinal tissue was separated from the extracted mouse eyes and treated with RIPA solution to extract proteins in the retina. Western blot was performed to evaluate the expression level of factors related to neovascularization and vascular permeability in the retina.
# COX-2 = test: Western blot of retinal tissue, db/db mouse model; assay type: in vivo, db/db mice; details: eye drops three times a day (TID) for about 12 weeks, versus db/db mouse group, Figure 10
# Protocol: as §2
# JNK = test: Western blot of retinal tissue, db/db mouse model; assay type: in vivo, db/db mice; details: eye drops BID or TID for about 12 weeks, versus db/db mouse group, Figure 11
# Protocol: as §2
# [6] = system: vascular endothelial growth factor (VEGF); test: Western blot of retinal tissue, db/db mouse model; assay type: in vivo, db/db mice; details: eye drops three times a day (TID) for about 12 weeks, versus db/db mouse group, Figure 8
# Protocol: as §2
# [7] = system: zebrafish retinal blood vessels; test: Inhibition of retinal vasodilation in zebrafish diabetic retinopathy model (fluorescence microscopy); assay type: in vivo, zebrafish Tg[flk:EGFP]; details: Figures 12 and 13
# Protocol: Among the embryos obtained by mating adult zebrafish Tg[flk:EGFP], embryos expressing a fluorescent protein were selected and used. On the 6th day after fertilization, the embryos were treated with glucose and the peptide of the present invention (002-175) for 4 days, and then euthanized by adding 4 mg/ml of Tricane. After fixing with 4% paraformaldehyde for 3 days, the eyeballs were separated using 3% trypsin, and the changes in the blood vessels in the separated eyeballs were observed using a fluorescence microscope.
# IL-1β [8] = test: Gene expression by microarray in zebrafish diabetic retinopathy model; assay type: in vivo, zebrafish Tg[flk:EGFP]; details: eyeball RNA, 4 days treatment with glucose and peptide, Figure 14
# Protocol: (§3) Among the embryos obtained by mating adult zebrafish Tg[flk:EGFP], embryos expressing a fluorescent protein were selected and used. On the 6th day after fertilization, the embryos were treated with glucose and the peptide of the present invention (002-175) for 4 days, and then euthanized by adding 4 mg/ml of Tricane. The eyeballs were extracted, and RNA was extracted and analyzed using microarray. In addition, Trizol was added to the extracted eyeballs, and the tissue was homogenized to extract mRNA. The extracted mRNA was quantified using a NanoDrop spectrophotometer, and cDNA was synthesized using RNA with a purity of 1.8 or higher. The synthesized cDNA was subjected to polymerization reaction of SYBR Green Master Mix, primers, and genes, and the concentration of each gene was divided by GAPDH to obtain the corrected concentration of the gene.
# MMP9 [9] = test: as above; assay type: in vivo, zebrafish Tg[flk:EGFP]; details: eyeball RNA, 4 days treatment with glucose and peptide, Figure 14
# Protocol: as §3
# NF-kB [10] = test: as above; assay type: in vivo, zebrafish Tg[flk:EGFP]; details: eyeball RNA, 4 days treatment with glucose and peptide, Figure 14
# Protocol: as §3
# IL-1β [11] = test: Gene expression by real-time PCR in zebrafish diabetic retinopathy model; assay type: in vivo, zebrafish Tg[flk:EGFP]; details: corrected by GAPDH, eyeball mRNA, Figure 15
# Protocol: as §3
# MMP9 [12] = test: as above; assay type: in vivo, zebrafish Tg[flk:EGFP]; details: corrected by GAPDH, eyeball mRNA, Figure 15
# Protocol: as §3
# NF-kB [13] = test: as above; assay type: in vivo, zebrafish Tg[flk:EGFP]; details: corrected by GAPDH, eyeball mRNA, Figure 15
# Protocol: as §3
# ikkα = test: as above; assay type: in vivo, zebrafish Tg[flk:EGFP]; details: corrected by GAPDH, eyeball mRNA, Figure 15
# Protocol: as §3
# ikkβ = test: as above; assay type: in vivo, zebrafish Tg[flk:EGFP]; details: corrected by GAPDH, eyeball mRNA, Figure 15
# Protocol: as §3
# ikkγ = test: as above; assay type: in vivo, zebrafish Tg[flk:EGFP]; details: corrected by GAPDH, eyeball mRNA, Figure 15
# Protocol: as §3
# [14] = system: TUNEL positive cells in the inner nuclear layer (INL) of the retina; test: TUNEL assay in retinal tissue, zebrafish diabetic retinopathy model; assay type: in vivo; details: versus high glucose group, Figures 16 and 17
# Protocol: (§4) On the 6th day after fertilization (6dpf, 6 days post-fertilization), zebrafish fry were fixed with 4% paraformaldehyde for 3-4 hours, and then treated with 30% sucrose, and treated overnight at 4°C. O.C.T blocks were made, and sections were performed, and then TUNEL staining and immunofluorescence (IF) staining were performed.
# GFAP = test: Immunofluorescence (IF) staining of zebrafish eye, diabetic retinopathy model; assay type: in vivo; details: outer nuclear layer (ONL) of the retina; versus high glucose group; Figures 16 and 17
# Protocol: as §4
# VEGF = test: as above; assay type: in vivo; details: outer nuclear layer (ONL) of the retina; versus high glucose group; Figures 16 and 17
# Protocol: as §4
# ZO-1 = test: as above; assay type: in vivo; details: tight junction protein; versus high glucose group; Figures 16 and 17
# Protocol: as §4
# [15] = eye drops (ED) BID or TID for about 12 weeks, versus db/db mouse group
# [16] = eye drops three times a day (TID) for about 12 weeks
substance,measurement,setting,value
[Hyp]GQE[Aib]LA [002-175],area of new blood vessels,[1],decrease in the area of new blood vessels to a level similar to that of the group administered with aflibercept
same,amplitude of the a wave and the b wave,[2],increase in the amplitude of the a wave and the b wave to a level similar to that of the group administered with aflibercept
same,amplitude of the a wave and the b wave,db/db mouse model; [15],increase in the amplitude of the a wave and the b wave
same,"amplitude of the a wave and the b wave, effect of TID compared with BID",db/db mouse model; [16],more excellent effect compared to the group administered twice a day (BID)
same,pericytes,pericytes; [15],inhibition of the decrease in pericytes
same,"pericytes, effect of TID compared with BID",pericytes; [16],more excellent effect compared to the group administered twice a day (BID)
same,phosphorylation level of Akt,Akt [3],decrease in the phosphorylation level of Akt
same,expression of vascular endothelial growth factor (VEGF),[4],decrease in the expression of vascular endothelial growth factor
same,phosphorylation level of Akt,Akt [5],decrease in the phosphorylation level of Akt
same,expression of COX-2,COX-2,decrease in the expression of COX-2
same,phosphorylation level of JNK,JNK,decrease in the phosphorylation level of JNK
same,expression of vascular endothelial growth factor (VEGF),[6],decrease in the expression of vascular endothelial growth factor
same,diameter of retinal blood vessels,"[7]; 100 µg/ml, 4 days, high glucose (130 mM glucose)",decrease in the diameter of retinal blood vessels to a level similar to that of the normal group
same,diameter of retinal blood vessels,"[7]; 200 µg/ml, 4 days, high glucose (130 mM glucose)",decrease in the diameter of retinal blood vessels to a level similar to that of the normal group
same,diameter of retinal blood vessels,"[7]; treated with glucose and peptide for 4 days from 6th day after fertilization, versus high glucose (130 mM glucose) group",decrease in the diameter of retinal blood vessels
same,gene expression of IL-1β,IL-1β [8],decrease in the gene expression
same,gene expression of MMP9,MMP9 [9],decrease in the gene expression
same,gene expression of NF-kB,NF-kB [10],decrease in the gene expression
same,gene expression of IL-1β,IL-1β [11],decrease in the gene expression
same,gene expression of MMP9,MMP9 [12],decrease in the gene expression
same,gene expression of NF-kB,NF-kB [13],decrease in the gene expression
same,gene expression of ikkα,ikkα,decrease in the gene expression
same,gene expression of ikkβ,ikkβ,decrease in the gene expression
same,gene expression of ikkγ,ikkγ,decrease in the gene expression
same,TUNEL positive cells,[14],decrease in TUNEL positive cells
same,expression of GFAP,GFAP,decrease in the expression of VEGF and GFAP
same,expression of VEGF,VEGF,decrease in the expression of VEGF and GFAP
same,expression of ZO-1,ZO-1,increase in expression and a recovery pattern
